Tests used:
[1] = test system: chickweed (common chickweed, Stellaria media); experiment: Test D pre-/postemergence: chickweed; type: in vivo
Summary of the method: (§1)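 Visual control ratings (0–100) after 14–21 days, controlled environment. Preemergence on silt loam; postemergence on 2–18 cm plants.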

[2] = test system: barley, spring (spring barley, Hordeum vulgare); experiment: Test D pre-/postemergence: barley, spring; type: in vivo
Summary of the method: as §1

[3] = test system: arrowleaf sida (Sida rhombifolia); experiment: Test F pre-/postemergence: arrowleaf sida; type: in vivo
Source text: (§2) Seeds of plant species selected from corn (Zea mays), soybean (Glycine max), velvetleaf (Abutilon theophrasti), lambsquarters (Chenopodium album), poinsettia, wild (wild poinsettia, Euphorbia heterophylla), pigweed, palmer (palmer pigweed, Amaranthus palmeri), waterhemp (common waterhemp, Amaranthus rudis), surinam grass (Brachiaria decumbens), crabgrass, Brazil (Brazilian crabgrass, Digitaria horizontalis), panicum, fall (fall panicum Panicum dichotomiflorum), crabgrass, large (large crabgrass, Digitaria sanguinalis), foxtail, giant (giant foxtail, Setaria faberii), foxtail, green (green foxtail Setaria viridis), goosegrass (Eleusine indica), ragweed (common ragweed, Ambrosia elatior), barnyardgrass (Echinochloa crus-galli), sandbur (southern sandbur, Cenchrus echinatus), arrowleaf sida (Sida rhombifolia), ryegrass, Italian (Italian ryegrass, Lolium multiflorum), dayflower, VA (Virginia (VA) dayflower, Commelina virginica), field bindweed (Convolvulus arvensis), cocklebur (common cocklebur, Xanthium strumarium), morningglory (Ipomoea coccinea), nightshade (eastern black nightshade, Solanum ptycanthum), kochia (Kochia scoparia), nutsedge, yellow (yellow nutsedge, Cyperus esculentus), johnsongrass (Sorghum halepense), smartweed (ladysthumb smartweed, Polygonum persicaria), and beggarticks (hairy beggarticks, Bidens pilosa), were planted into a silt loam soil and treated preemergence with test chemicals formulated in a non-phytotoxic solvent mixture which included a surfactant. At the same time, plants selected from these crop and weed species and also pigweed (Amaranthus retroflexus), waterhemp_RES1 (ALS/Triazine resistant common waterhemp, Amaranthus rudis) and waterhemp_RES2 (ALS/HPPD resistant common waterhemp, Amaranthus rudis) were planted in pots containing a planting medium comprising spaghnum peat moss, vermiculite, wetting agent and starter nutrients treated with postemergence applications of some of the test chemicals formulated in the same manner. Plants ranged in height from 2 to 18 cm for postemergence treatments (1- to 4-leaf stage).
(§3) Treated plants and controls were maintained in a greenhouse for 14 to 21 days, after which time all species were compared to controls and visually evaluated. Plant response ratings, summarized in Table E, are based on a scale of 0 to 100 where 0 is no effect and 100 is complete control. A dash (-) response means no test result.

[4] = test system: radish, wild (wild radish, Raphanus raphanistrum); experiment: Test D pre-/postemergence: radish, wild; type: in vivo
Summary of the method: as §1

[5] = test system: barnyardgrass (Echinochloa crus-galli); experiment: Test F pre-/postemergence: barnyardgrass; type: in vivo
Summary of the method: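 Visual response scores, 0 meaning no effect and 100 complete control, were assigned against untreated controls 14 to 21 days after treatment. Test chemicals in a surfactant-containing non-phytotoxic solvent were applied preemergence to seeded silt loam soil or postemergence to 2–18 cm plants in peat-based medium.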

[6] = test system: crabgrass, large (large crabgrass, Digitaria sanguinalis); experiment: Test F pre-/postemergence: crabgrass, large; type: in vivo; settings: Preemergence
Source text: as §2, §3

Waterhemp = experiment: Test C preemergence: waterhemp; type: in vivo, Amaranthus rudis; settings: scale 0 to 100, 0 no effect, 100 complete control
[7] = Postemergence, 31 g ai/ha, scale 0 to 100 (0 no effect, 100 complete control)
[8] = Postemergence, 62 g ai/ha, scale 0 to 100 (0 no effect, 100 complete control)
[9] = Postemergence, 125 g ai/ha, scale 0 to 100, 0 no effect, 100 complete control
[10] = Postemergence, 16 g ai/ha, scale 0 to 100
[11] = Preemergence, 16 g ai/ha, scale 0 to 100, 0 no effect, 100 complete control
[12] = Preemergence, 31 g ai/ha, scale 0 to 100, 0 no effect, 100 complete control
[13] = Preemergence, 62 g ai/ha, scale 0 to 100
[14] = Preemergence, 125 g ai/ha, scale 0 to 100
[15] = Preemergence, 250 g ai/ha, scale 0 to 100
[16] = 16 g ai/ha, scale 0 to 100, 0 no effect, 100 complete control
[17] = 31 g ai/ha, scale 0 to 100, 0 no effect, 100 complete control
[18] = Postemergence, 250 g ai/ha, scale 0 to 100
[19] = Postemergence, 31 g ai/ha, scale 0 to 100
[20] = Postemergence, 62 g ai/ha, scale 0 to 100
[21] = Postemergence, 125 g ai/ha, scale 0 to 100
[22] = Postemergence, 8 g ai/ha, scale 0 to 100
[23] = Preemergence, 8 g ai/ha, scale 0 to 100, 0 no effect, 100 complete control

SMILES: Cc1nn(-c2ccc(C(F)(F)F)c(F)c2)nc1Oc1ccnc(C(F)(F)F)c1 [Compound 148]
- Plant response rating: Chickweed [1, 7]: 70
- Plant response rating: Chickweed [1, 8]: 80
- Plant response rating: Chickweed [1, 9]: 90
- Plant response rating, Chickweed [1, 10]: 60
- Plant response rating, Chickweed [1, 11]: 25
- Plant response rating, Chickweed [1, 12]: 60
- Plant response rating, Chickweed [1, 13]: 70
- Plant response rating, Chickweed [1, 14]: 100
- Plant response rating: Barley, Spring [2, 7]: 15
- Plant response rating: Barley, Spring [2, 8]: 20
- Plant response rating: Barley, Spring [2, 9]: 25
- Plant response rating, Barley, Spring [2, 10]: 10
- Plant response rating, Barley, Spring [2, 11]: 0
- Plant response rating, Barley, Spring [2, 12]: 0
- Plant response rating, Barley, Spring [2, 13]: 5
- Plant response rating, Barley, Spring [2, 14]: 5
- Plant response rating, Arrowleaf Sida [3, 11]: 0
- Plant response rating, Arrowleaf Sida [3, 12]: 0
- Plant response rating, Arrowleaf Sida [3, 13]: 0
- Plant response rating, Arrowleaf Sida [3, 14]: 0
- Plant response rating, Arrowleaf Sida [3, 15]: 0
- Plant response rating: Radish, Wild [4, 7]: 100
- Plant response rating: Radish, Wild [4, 8]: 100
- Plant response rating: Radish, Wild [4, 9]: 100
- Plant response rating, Radish, Wild [4, 10]: 90
- Plant response rating, Radish, Wild [4, 11]: 10
- Plant response rating, Radish, Wild [4, 12]: 20
- Plant response rating, Radish, Wild [4, 13]: 100
- Plant response rating, Radish, Wild [4, 14]: 100
- Plant response rating, Barnyardgrass [5, 11]: 0
- Plant response rating, Barnyardgrass [5, 12]: 0
- Plant response rating, Barnyardgrass [5, 13]: 0
- Plant response rating, Barnyardgrass [5, 14]: 20
- Plant response rating, Barnyardgrass [5, 15]: 98
- Plant response rating, Crabgrass, Large [6, 16]: 95
- Plant response rating, Crabgrass, Large [6, 17]: 100
- Plant response rating, Crabgrass, Large ([6]; 62 g ai/ha, scale 0 to 100): 100
- Plant response rating, Crabgrass, Large ([6]; 125 g ai/ha, scale 0 to 100): 100
- Plant response rating, Crabgrass, Large ([6]; 250 g ai/ha, scale 0 to 100): 100

SMILES: FCc1nn(-c2ccc(F)cc2)nc1Oc1ccnc(C(F)(F)F)c1 [Compound 160]
- Plant response rating, Waterhemp (Waterhemp; 125 g ai/ha): 100

SMILES: CCOCc1nn(-c2ccc(F)cc2)nc1Oc1ccnc(C(F)(F)F)c1 [Compound 163]
- Plant response rating, Waterhemp (Waterhemp; 125 g ai/ha): 100

SMILES: CCc1nn(-c2ccc(C(F)(F)F)cc2)nc1Oc1ccnc(C(F)(F)F)c1 [Compound 169]
- Plant response rating, Arrowleaf Sida [3, 18]: 50
- Plant response rating, Arrowleaf Sida [3, 10]: 20
- Plant response rating, Arrowleaf Sida [3, 19]: 20
- Plant response rating, Arrowleaf Sida [3, 20]: 20
- Plant response rating, Arrowleaf Sida [3, 21]: 30
- Plant response rating, Arrowleaf Sida [3, 11]: 0
- Plant response rating, Arrowleaf Sida [3, 12]: 0
- Plant response rating, Arrowleaf Sida [3, 13]: 0
- Plant response rating, Arrowleaf Sida [3, 14]: 5
- Plant response rating, Arrowleaf Sida [3, 15]: 5
- Plant response rating, Barnyardgrass [5, 18]: 40
- Plant response rating, Barnyardgrass [5, 10]: 0
- Plant response rating, Barnyardgrass [5, 19]: 0
- Plant response rating, Barnyardgrass [5, 20]: 15
- Plant response rating, Barnyardgrass [5, 21]: 25
- Plant response rating, Barnyardgrass [5, 11]: 0
- Plant response rating, Barnyardgrass [5, 12]: 0
- Plant response rating, Barnyardgrass [5, 13]: 20
- Plant response rating, Barnyardgrass [5, 14]: 60
- Plant response rating, Barnyardgrass [5, 15]: 95
- Plant response rating, Crabgrass, Large [6, 16]: 98
- Plant response rating, Crabgrass, Large [6, 17]: 98
- Plant response rating, Crabgrass, Large ([6]; 62 g ai/ha, scale 0 to 100): 100
- Plant response rating, Crabgrass, Large ([6]; 125 g ai/ha, scale 0 to 100): 100
- Plant response rating, Crabgrass, Large ([6]; 250 g ai/ha, scale 0 to 100): 100

SMILES: CCc1nn(-c2ccc(F)c(F)c2)nc1Oc1ccnc(C(F)(F)F)c1 [Compound 171]
- Plant response rating, Arrowleaf Sida [3, 11]: 0
- Plant response rating, Arrowleaf Sida [3, 12]: 0
- Plant response rating, Arrowleaf Sida [3, 13]: 15
- Plant response rating, Arrowleaf Sida [3, 14]: 30
- Plant response rating, Arrowleaf Sida [3, 15]: 60
- Plant response rating, Barnyardgrass [5, 11]: 0
- Plant response rating, Barnyardgrass [5, 12]: 5
- Plant response rating, Barnyardgrass [5, 13]: 5
- Plant response rating, Barnyardgrass [5, 14]: 80
- Plant response rating, Barnyardgrass [5, 15]: 100
- Plant response rating, Crabgrass, Large [6, 16]: 75
- Plant response rating, Crabgrass, Large [6, 17]: 98
- Plant response rating, Crabgrass, Large ([6]; 62 g ai/ha, scale 0 to 100): 98
- Plant response rating, Crabgrass, Large ([6]; 125 g ai/ha, scale 0 to 100): 100
- Plant response rating, Crabgrass, Large ([6]; 250 g ai/ha, scale 0 to 100): 100

SMILES: CCCc1nn(-c2ccc(F)c(F)c2)nc1Oc1ccnc(C(F)(F)F)c1 [Compound 172]
- Plant response rating, Arrowleaf Sida [3, 18]: 100
- Plant response rating, Arrowleaf Sida [3, 19]: 65
- Plant response rating, Arrowleaf Sida [3, 21]: 90
- Plant response rating, Arrowleaf Sida [3, 12]: 30
- Plant response rating, Arrowleaf Sida [3, 14]: 95
- Plant response rating, Arrowleaf Sida [3, 15]: 100
- Plant response rating, Barnyardgrass [5, 18]: 85
- Plant response rating, Barnyardgrass [5, 19]: 20
- Plant response rating, Barnyardgrass [5, 21]: 50
- Plant response rating, Barnyardgrass [5, 12]: 70
- Plant response rating, Barnyardgrass [5, 14]: 100
- Plant response rating, Barnyardgrass [5, 15]: 100
- Plant response rating, Crabgrass, Large [6, 17]: 100
- Plant response rating, Crabgrass, Large ([6]; 125 g ai/ha, scale 0 to 100): 100
- Plant response rating, Crabgrass, Large ([6]; 250 g ai/ha, scale 0 to 100): 100

SMILES: CCOc1nn(-c2ccc(Cl)cc2)nc1Cc1ccnc(C(F)(F)F)c1 [Compound 188]
- Plant response rating, Waterhemp (Waterhemp; 125 g ai/ha): 100
- Plant response rating, Waterhemp (Waterhemp; 250 g ai/ha): 100

SMILES: CCOc1nn(-c2ccc(F)cc2)nc1Cc1ccnc(C(F)(F)F)c1 [Compound 196, 4-[[5-ethoxy-2-(4-fluorophenyl)-2H-1,2,3-triazol-4-yl]methyl]-2-(trifluoromethyl)pyridine]
- Plant response rating: Chickweed [1, 7]: 85
- Plant response rating: Chickweed [1, 8]: 95
- Plant response rating: Chickweed [1, 9]: 100
- Plant response rating, Chickweed [1, 10]: 70
- Plant response rating, Chickweed [1, 11]: 50
- Plant response rating, Chickweed [1, 12]: 65
- Plant response rating, Chickweed [1, 13]: 100
- Plant response rating, Chickweed [1, 14]: 100
- Plant response rating: Barley, Spring [2, 7]: 20
- Plant response rating: Barley, Spring [2, 8]: 35
- Plant response rating: Barley, Spring [2, 9]: 55
- Plant response rating, Barley, Spring [2, 10]: 15
- Plant response rating, Barley, Spring [2, 11]: 5
- Plant response rating, Barley, Spring [2, 12]: 5
- Plant response rating, Barley, Spring [2, 13]: 15
- Plant response rating, Barley, Spring [2, 14]: 30
- Plant response rating, Arrowleaf Sida [3, 22]: 80
- Plant response rating, Arrowleaf Sida [3, 10]: 90
- Plant response rating, Arrowleaf Sida [3, 19]: 90
- Plant response rating, Arrowleaf Sida [3, 20]: 95
- Plant response rating, Arrowleaf Sida [3, 21]: 95
- Plant response rating, Arrowleaf Sida [3, 23]: 0
- Plant response rating, Arrowleaf Sida [3, 11]: 0
- Plant response rating, Arrowleaf Sida [3, 12]: 15
- Plant response rating, Arrowleaf Sida [3, 13]: 15
- Plant response rating, Arrowleaf Sida [3, 14]: 15
- Plant response rating: Radish, Wild [4, 7]: 100
- Plant response rating: Radish, Wild [4, 8]: 100
- Plant response rating: Radish, Wild [4, 9]: 100
- Plant response rating, Radish, Wild [4, 10]: 65
- Plant response rating, Radish, Wild [4, 11]: 50
- Plant response rating, Radish, Wild [4, 12]: 20
- Plant response rating, Radish, Wild [4, 13]: 70
- Plant response rating, Radish, Wild [4, 14]: 100
- Plant response rating, Barnyardgrass [5, 22]: 30
- Plant response rating, Barnyardgrass [5, 10]: 40
- Plant response rating, Barnyardgrass [5, 19]: 60
- Plant response rating, Barnyardgrass [5, 20]: 60
- Plant response rating, Barnyardgrass [5, 21]: 90
- Plant response rating, Barnyardgrass [5, 23]: 0
- Plant response rating, Barnyardgrass [5, 11]: 25
- Plant response rating, Barnyardgrass [5, 12]: 40
- Plant response rating, Barnyardgrass [5, 13]: 70
- Plant response rating, Barnyardgrass [5, 14]: 100
- Plant response rating, Crabgrass, Large [6, 16]: 75
- Plant response rating, Crabgrass, Large [6, 17]: 100
- Plant response rating, Crabgrass, Large ([6]; 62 g ai/ha, scale 0 to 100): 100
- Plant response rating, Crabgrass, Large ([6]; 125 g ai/ha, scale 0 to 100): 100
